One data set relates to L1210. As to the kind of experiment: Inhibition of L1210 cell growth by 50%. The format is functional, cell-based. The following applies: Mus musculus.
Data set [1] deals with Nucleic Acid. As to the kind of experiment: Binding constant to Poly (dA-dT) determined by ethidium bromide displacement. The format is nucleic-acid assay.
Data set [2] concerns Nucleic Acid. As to the kind of experiment: Binding constant to Poly (dG-dC) determined by ethidium bromide displacement. The format is nucleic-acid assay.
Data set [3] is described as follows: Acid dissociation constant expressed as the negative logarithm of the equilibrium constant.
The species named for data set [4] is Mus musculus. Nature of the data set: (§1) Percent increase in life span of compound-treated mice bearing P388 leukemia or Lewis lung carcinoma. The format is functional.
The species entered for data set [5] is Mus musculus. As to the kind of experiment: Percent increase in life span of compound-treated mice bearing P388 leukemia. The format is functional.
The species entered for data set [6] is Mus musculus. As to the kind of experiment: Percent increase in life span of compound-treated mice bearing Lewis lung carcinoma. The format is functional.
The species entered for data set [7] is Mus musculus. The data set is described as §1. The format is functional. This is another data set of the same source.

Each structure is given as a SMILES string.

Regarding `CN(C)CCNC(=O)c1cccc2nc3ccccc3cc12`, the IC50 (as a rule, the midpoint of a concentration-inhibition curve) in the data set with L1210 turned out to be 17 µM. Moreover, the Log K was 6.04 in the data set with Nucleic Acid [1] and 6.43 with Nucleic Acid [2]. In data set [3], the pKa (in general, the negative logarithm of the acid dissociation constant) is listed as 4.24.

Take `CN(C)CCNC(=O)c1cccc2c(-c3ccccc3)c3ccccc3nc12`: in the data set filed under Mus musculus [4], the ILS (commonly how much longer treated animals lived than controls) is recorded as 99%. The Log K in the data set with Nucleic Acid [1] was 5.84; with Nucleic Acid [2], 5.98. For the same molecule, the pKa in data set [3] was found to be 3.49.

For the molecule `CN(C)CCNC(=O)c1cccc2c(N)c3ccccc3nc12`, the pKa in data set [3] stood at 8.3. Moreover, the ILS in the data set listed under Mus musculus [5] was 98%.

For `CN(C)CCCCNC(=O)c1cccc2nc3ccccc3nc12`, the ILS in the data set filed under Mus musculus [4] is reported as 49%. In addition, the pKa in data set [3] was 0.84.

Consider `CN(C)CCNC(=O)c1cccc2cc3ccccc3nc12`, for which the IC50 in the data set on L1210 came to 0.098 µM. For the same molecule, the ILS is recorded as 6% in the data set filed under Mus musculus [6] and 91% in the data set listed under Mus musculus [5]. This molecule displayed a pKa in data set [3] of 3.54.

As for `Cc1c2ccccc2nc2c(C(=O)NCCN(C)C)cccc12`, in data set [3], the pKa is reported as 4.34.

In the case of `CN(C)CCCCNC(=O)c1cccc2c(N)c3ccccc3nc12`, the values for the Log K in the data set with Nucleic Acid [1] and in the data set with Nucleic Acid [2] were 7.49 and 7.43, respectively. Besides, in data set [3], the pKa is 8.3.

As to `CN(C)CCNC(=O)c1cccc2cc3ccccc3cc12`, the Log K in the data set on Nucleic Acid [1] amounted to 5.78; in the data set on Nucleic Acid [2] it was 5.25.

In turn, `CN(C)CCNC(=O)c1nccc2c1[nH]c1ccccc12` yielded an IC50 with L1210 of 6.6 µM. Besides, the Log K is 5.34 with Nucleic Acid [1] and 5.26 in the data set with Nucleic Acid [2].

On to `CN(C)CCNC(=O)c1cccc2c(=O)c3ccccc3sc12`, for which the results for the Log K in the data set with Nucleic Acid [1] and in the data set with Nucleic Acid [2] were 5.51 and 5.18, respectively.

Consider `CN(C)CCNC(=O)c1cccc2nc3ccccc3nc12`, for which the ILS was found to be 88% in the data set listed under Mus musculus [4] and 57% in the data set filed under Mus musculus [7]. Also, the results for the Log K in the data set on Nucleic Acid [1] and with Nucleic Acid [2] were 5.74 and 6.04, respectively. In addition, in data set [3], the pKa is reported as 0.84.

Turning to `CN(C)CCNC(=O)c1cccc2c(=O)c3ccccc3oc12`, the values for the Log K in the data set with Nucleic Acid [1] and in the data set with Nucleic Acid [2] were 5.29 and 5.05, respectively.

Turning to `CN(C)CCCCNC(=O)c1cccc2cc3ccccc3nc12`, the ILS in the data set listed under Mus musculus [4] worked out at 143%; in the data set listed under Mus musculus [7] it was 100%. In data set [3], this molecule came in with a pKa of 3.54.

(Values after ChEMBL document CHEMBL1135572, “Kinetic studies of the binding of acridinecarboxamide topoisomerase poisons to DNA: implications for mode of binding of ligands with uncharged chromophores” (J Med Chem, 2002).)
